Laboratory results reported in US10442796B2, “2,3,5-substituted thiophene compound as protein kinase inhibitor” (KOREA INSTITUTE OF SCIENCE AND TECHNOLOGY, priority 2016, dated 2019).

Experiments:
[1] = tested on: FLT3-ITD-F691L-D835Y Ba/F3 cells; assay: In vivo bioluminescent efficacy study in mouse AML model; settings: for T/C, reduction of luminescence: compared with AC220-treated and vehicle control mice
Protocol: Nude mice (5-6 weeks old)(Orient) were purchased and used after a week. Mice were anesthetized following IACUC approved animal protocol. FLT3-ITD F691L-D835Y, luc+ Ba/F3 cell (Established in-house) suspension (in 0.1 mL RPMI1640 (Welgene) of 1.0×10^6 cells) was injected into tail vein intravenously using a 29-G needle, and an tail mark was added to each animal for identification. After 6 days, the luminescence intensity was measured using IVIS (Perkin Elmer) to calculate the ROI intensity. Once ROI intensity reaches the study-desired minimum intensity (usually 2×106), mice were randomized into different treatment groups based on signal intensity.
Each compound was dissolved in NMP at 20× final concentration and diluted to 1× with the remaining vehicle components (vehicle: 5% NMP, 15% solutol (Sigma-aldrich), 30% PEG400 (Sigma-aldrich), 50% 0.05M citric acid (Sigma-aldrich)). Each compound solution was prepared freshly just before administration. Compounds were administered orally using a mouse sondae once a day, 0.1 mL per mouse. Mice were humanely euthanized if animals experience 20% body weight loss.
D-Luciferin (Promega) was dissolved in DPBS (Welgene) (without Ca2+ and Mg2+) at 15 mg/mL, and the stock solution was prepared after filtration using 0.22 μm syringe filters (BD). Luciferin solution (150 mg/kg in DPBS) was injected intraperitoneally into each mouse (200 μL/mouse). After 5 min, mice were anesthetized for 5 min using isoflurane (JW Pharma). Luminescence signal was read using IVIS200 (exposure time: auto, binning: 8, F/stop: 1). Signal intensity and body weights were measured every 3 days to monitor the ROI intensity and treatment-induced body weight loss. […] Data was analyzed using Living Image software (Caliper, PerkinElmer).
Statistical analysis of luminescence signal intensity, mouse body weight, and spleen/body weight ratio were evaluated using two-way ANOVA. Differences were considered statistically significant at p<0.005.

[2] = target: CAMK1 (Homo sapiens, UniProt Q14012); assay: Kinase inhibitory activity, full kinase panel; format: biochemical; settings: single concentration of 1 μM, read-out: %Inhibitory ability
Protocol: (§1) In order to measure inhibitory activity (% inhibitory ability) against a protein kinase with respect to the compound of the present invention, a biochemical assay was performed in a full kinase panel shown in the following Table 1. As an experimental compound, the (S)-5-((3-fluorophenyl)ethynyl)-N-(piperidin-3-yl)-3-ureidothiophene-2-carboxamide synthesized in Example 24 was used.

[3] = target: CSF1R (Homo sapiens, UniProt P07333); assay: Kinase inhibitory activity, full kinase panel; format: biochemical; settings: single concentration of 1 μM, read-out: %Inhibitory ability
Protocol: as §1

[4] = target: DAPK1 (Homo sapiens, UniProt P53355); assay: Kinase inhibitory activity, full kinase panel; format: biochemical; settings: single concentration of 1 μM, read-out: %Inhibitory ability
Protocol: as §1

[5] = target: DLK (Homo sapiens, UniProt Q12852); assay: Kinase inhibitory activity, full kinase panel; format: biochemical; settings: single concentration of 1 μM, read-out: %Inhibitory ability
Protocol: as §1

[6] = target: DRAK2 (Homo sapiens, UniProt O94768); assay: Kinase inhibitory activity, full kinase panel; format: biochemical; settings: single concentration of 1 μM, read-out: %Inhibitory ability
Sequence of DRAK2 (O94768 whole entry, species assumed): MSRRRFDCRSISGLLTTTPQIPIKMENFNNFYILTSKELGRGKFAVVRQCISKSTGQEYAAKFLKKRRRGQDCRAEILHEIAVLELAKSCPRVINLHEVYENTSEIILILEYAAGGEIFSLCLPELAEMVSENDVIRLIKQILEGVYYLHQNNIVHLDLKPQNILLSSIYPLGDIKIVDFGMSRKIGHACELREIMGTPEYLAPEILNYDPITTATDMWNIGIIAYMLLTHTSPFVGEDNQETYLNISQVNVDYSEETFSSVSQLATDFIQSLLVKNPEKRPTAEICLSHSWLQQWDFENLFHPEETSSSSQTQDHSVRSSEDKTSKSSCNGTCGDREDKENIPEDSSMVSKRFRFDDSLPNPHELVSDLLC
Protocol: as §1

[7] = target: EPHA3 (Homo sapiens, UniProt P29320); assay: Kinase inhibitory activity, full kinase panel; format: biochemical; settings: single concentration of 1 μM, read-out: %Inhibitory ability
Sequence of EPHA3 (P29320 21-983, species assumed): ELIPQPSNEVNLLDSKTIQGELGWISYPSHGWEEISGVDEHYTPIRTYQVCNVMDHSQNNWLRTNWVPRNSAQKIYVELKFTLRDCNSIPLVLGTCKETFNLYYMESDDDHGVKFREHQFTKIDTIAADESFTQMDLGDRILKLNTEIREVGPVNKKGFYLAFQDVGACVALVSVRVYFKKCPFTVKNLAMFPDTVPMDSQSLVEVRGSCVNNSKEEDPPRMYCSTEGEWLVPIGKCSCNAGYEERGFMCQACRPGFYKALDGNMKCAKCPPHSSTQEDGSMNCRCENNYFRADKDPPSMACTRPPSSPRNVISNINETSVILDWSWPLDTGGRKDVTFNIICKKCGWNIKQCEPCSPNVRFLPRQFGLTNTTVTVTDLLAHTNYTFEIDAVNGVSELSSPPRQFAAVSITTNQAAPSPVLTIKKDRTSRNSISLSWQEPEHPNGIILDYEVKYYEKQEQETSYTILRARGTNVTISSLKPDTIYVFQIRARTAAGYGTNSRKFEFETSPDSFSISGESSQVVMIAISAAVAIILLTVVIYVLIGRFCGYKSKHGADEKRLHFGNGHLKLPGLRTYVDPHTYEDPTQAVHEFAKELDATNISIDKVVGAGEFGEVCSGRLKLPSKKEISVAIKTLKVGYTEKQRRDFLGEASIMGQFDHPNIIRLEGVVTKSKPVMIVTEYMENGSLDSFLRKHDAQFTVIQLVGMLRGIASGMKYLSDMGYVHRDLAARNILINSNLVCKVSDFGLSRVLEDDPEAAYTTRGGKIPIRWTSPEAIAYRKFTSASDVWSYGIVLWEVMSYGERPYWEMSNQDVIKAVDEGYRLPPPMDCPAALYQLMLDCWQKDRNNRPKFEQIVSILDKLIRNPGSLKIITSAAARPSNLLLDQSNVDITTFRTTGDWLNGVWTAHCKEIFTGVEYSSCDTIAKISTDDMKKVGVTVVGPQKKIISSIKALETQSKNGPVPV
Protocol: as §1

[8] = target: HCK (Homo sapiens, UniProt P08631); assay: Kinase inhibitory activity, full kinase panel; format: biochemical; settings: single concentration of 1 μM, read-out: %Inhibitory ability
Protocol: as §1

[9] = target: IRAK1 (Homo sapiens, UniProt P51617); assay: Kinase inhibitory activity, full kinase panel; format: biochemical; settings: single concentration of 1 μM, read-out: %Inhibitory ability
Protocol: as §1

[10] = target: IRAK4 (Homo sapiens, UniProt Q9NWZ3); assay: Kinase inhibitory activity, full kinase panel; format: biochemical; settings: single concentration of 1 μM, read-out: %Inhibitory ability
Protocol: as §1

[11] = target: KIT (Homo sapiens, UniProt P10721); assay: Kinase inhibitory activity, full kinase panel; format: biochemical; settings: single concentration of 1 μM, read-out: %Inhibitory ability
Protocol: as §1

[12] = target: MAP3K2 (Homo sapiens, UniProt Q9Y2U5); assay: Kinase inhibitory activity, full kinase panel; format: biochemical; settings: single concentration of 1 μM, read-out: %Inhibitory ability
Sequence of MAP3K2 (Q9Y2U5 whole entry, species assumed): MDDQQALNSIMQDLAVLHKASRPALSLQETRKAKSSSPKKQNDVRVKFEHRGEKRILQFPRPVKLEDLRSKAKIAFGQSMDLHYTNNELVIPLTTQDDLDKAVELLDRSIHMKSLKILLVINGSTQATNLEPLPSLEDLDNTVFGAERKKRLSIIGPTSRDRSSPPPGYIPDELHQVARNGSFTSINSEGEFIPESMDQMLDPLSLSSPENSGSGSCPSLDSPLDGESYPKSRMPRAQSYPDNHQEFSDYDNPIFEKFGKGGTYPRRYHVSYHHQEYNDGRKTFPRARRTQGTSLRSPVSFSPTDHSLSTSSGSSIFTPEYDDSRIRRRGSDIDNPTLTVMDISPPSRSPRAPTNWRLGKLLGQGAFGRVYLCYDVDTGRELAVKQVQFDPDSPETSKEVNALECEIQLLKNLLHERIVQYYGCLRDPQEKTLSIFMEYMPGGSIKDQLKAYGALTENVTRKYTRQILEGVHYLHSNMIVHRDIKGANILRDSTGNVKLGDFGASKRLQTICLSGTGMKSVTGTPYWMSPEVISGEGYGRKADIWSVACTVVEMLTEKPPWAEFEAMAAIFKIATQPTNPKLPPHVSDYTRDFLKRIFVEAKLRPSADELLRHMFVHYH
Protocol: as §1

[13] = target: MKNK2 (Homo sapiens, UniProt Q9HBH9); assay: Kinase inhibitory activity, full kinase panel; format: biochemical; settings: single concentration of 1 μM, read-out: %Inhibitory ability
Sequence of MKNK2 (Q9HBH9 whole entry): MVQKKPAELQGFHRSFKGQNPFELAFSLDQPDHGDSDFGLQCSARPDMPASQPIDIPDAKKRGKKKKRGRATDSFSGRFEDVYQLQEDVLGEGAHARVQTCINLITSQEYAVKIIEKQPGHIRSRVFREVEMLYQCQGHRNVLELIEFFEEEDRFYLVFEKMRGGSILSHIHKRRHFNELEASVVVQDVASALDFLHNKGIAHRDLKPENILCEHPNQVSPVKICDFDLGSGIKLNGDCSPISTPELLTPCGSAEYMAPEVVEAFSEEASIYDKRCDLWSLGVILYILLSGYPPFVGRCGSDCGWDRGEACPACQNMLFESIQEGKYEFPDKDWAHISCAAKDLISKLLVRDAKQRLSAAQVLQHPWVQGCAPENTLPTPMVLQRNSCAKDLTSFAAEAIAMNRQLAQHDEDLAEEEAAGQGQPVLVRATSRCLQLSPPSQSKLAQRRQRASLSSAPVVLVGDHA
Protocol: as §1

[14] = target: MLK1 (Homo sapiens, UniProt P80192); assay: Kinase inhibitory activity, full kinase panel; format: biochemical; settings: single concentration of 1 μM, read-out: %Inhibitory ability
Sequence of MLK1 (P80192 whole entry): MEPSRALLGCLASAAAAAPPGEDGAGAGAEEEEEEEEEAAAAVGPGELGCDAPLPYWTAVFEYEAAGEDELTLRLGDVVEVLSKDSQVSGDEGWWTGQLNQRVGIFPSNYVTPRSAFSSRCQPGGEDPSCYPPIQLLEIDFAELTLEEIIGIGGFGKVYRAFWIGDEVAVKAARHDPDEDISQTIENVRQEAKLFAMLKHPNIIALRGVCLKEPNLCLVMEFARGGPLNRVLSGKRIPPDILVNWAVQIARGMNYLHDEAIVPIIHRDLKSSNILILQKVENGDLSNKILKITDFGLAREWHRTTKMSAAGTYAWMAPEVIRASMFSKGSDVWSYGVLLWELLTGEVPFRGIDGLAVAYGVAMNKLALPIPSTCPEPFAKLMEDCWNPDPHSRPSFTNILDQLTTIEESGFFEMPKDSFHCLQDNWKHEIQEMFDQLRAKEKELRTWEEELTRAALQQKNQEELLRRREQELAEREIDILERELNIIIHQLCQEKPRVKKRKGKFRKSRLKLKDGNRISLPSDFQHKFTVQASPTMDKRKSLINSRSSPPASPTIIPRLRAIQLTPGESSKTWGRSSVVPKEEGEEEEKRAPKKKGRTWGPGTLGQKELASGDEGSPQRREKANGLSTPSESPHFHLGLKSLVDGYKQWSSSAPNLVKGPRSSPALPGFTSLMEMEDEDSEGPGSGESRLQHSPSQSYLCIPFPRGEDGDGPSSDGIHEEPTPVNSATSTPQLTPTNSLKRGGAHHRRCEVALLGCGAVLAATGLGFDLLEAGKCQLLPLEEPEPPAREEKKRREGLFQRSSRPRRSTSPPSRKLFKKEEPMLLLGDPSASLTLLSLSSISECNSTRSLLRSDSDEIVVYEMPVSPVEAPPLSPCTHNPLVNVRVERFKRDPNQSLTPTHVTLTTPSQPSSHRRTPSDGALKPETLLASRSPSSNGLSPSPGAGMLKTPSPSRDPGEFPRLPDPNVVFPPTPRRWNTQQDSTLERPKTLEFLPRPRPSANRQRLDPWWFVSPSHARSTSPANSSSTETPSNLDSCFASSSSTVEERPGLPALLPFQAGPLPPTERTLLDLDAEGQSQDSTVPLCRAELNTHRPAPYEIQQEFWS
Protocol: as §1

[15] = target: MST1 (Homo sapiens, UniProt Q13043); assay: Kinase inhibitory activity, full kinase panel; format: biochemical; settings: single concentration of 1 μM, read-out: %Inhibitory ability
Protocol: as §1

[16] = target: MST2 (Homo sapiens, UniProt Q13188); assay: Kinase inhibitory activity, full kinase panel; format: biochemical; settings: single concentration of 1 μM, read-out: %Inhibitory ability
Protocol: as §1

[17] = target: PAK6 (Homo sapiens, UniProt Q9NQU5); assay: Kinase inhibitory activity, full kinase panel; format: biochemical; settings: single concentration of 1 μM, read-out: %Inhibitory ability
Protocol: as §1

[18] = target: PLK4 (Homo sapiens, UniProt O00444); assay: Kinase inhibitory activity, full kinase panel; format: biochemical; settings: single concentration of 1 μM, read-out: %Inhibitory ability
Protocol: as §1

[19] = target: PRKG2 (Homo sapiens, UniProt Q13237); assay: Kinase inhibitory activity, full kinase panel; format: biochemical; settings: single concentration of 1 μM, read-out: %Inhibitory ability
Protocol: as §1

[20] = target: RIOK1 (Homo sapiens, UniProt Q9BRS2); assay: Kinase inhibitory activity, full kinase panel; format: biochemical; settings: single concentration of 1 μM, read-out: %Inhibitory ability
Protocol: as §1

[21] = target: RIPK4 (Homo sapiens, UniProt P57078); assay: Kinase inhibitory activity, full kinase panel; format: biochemical; settings: single concentration of 1 μM, read-out: %Inhibitory ability
Sequence of RIPK4 (P57078 whole entry): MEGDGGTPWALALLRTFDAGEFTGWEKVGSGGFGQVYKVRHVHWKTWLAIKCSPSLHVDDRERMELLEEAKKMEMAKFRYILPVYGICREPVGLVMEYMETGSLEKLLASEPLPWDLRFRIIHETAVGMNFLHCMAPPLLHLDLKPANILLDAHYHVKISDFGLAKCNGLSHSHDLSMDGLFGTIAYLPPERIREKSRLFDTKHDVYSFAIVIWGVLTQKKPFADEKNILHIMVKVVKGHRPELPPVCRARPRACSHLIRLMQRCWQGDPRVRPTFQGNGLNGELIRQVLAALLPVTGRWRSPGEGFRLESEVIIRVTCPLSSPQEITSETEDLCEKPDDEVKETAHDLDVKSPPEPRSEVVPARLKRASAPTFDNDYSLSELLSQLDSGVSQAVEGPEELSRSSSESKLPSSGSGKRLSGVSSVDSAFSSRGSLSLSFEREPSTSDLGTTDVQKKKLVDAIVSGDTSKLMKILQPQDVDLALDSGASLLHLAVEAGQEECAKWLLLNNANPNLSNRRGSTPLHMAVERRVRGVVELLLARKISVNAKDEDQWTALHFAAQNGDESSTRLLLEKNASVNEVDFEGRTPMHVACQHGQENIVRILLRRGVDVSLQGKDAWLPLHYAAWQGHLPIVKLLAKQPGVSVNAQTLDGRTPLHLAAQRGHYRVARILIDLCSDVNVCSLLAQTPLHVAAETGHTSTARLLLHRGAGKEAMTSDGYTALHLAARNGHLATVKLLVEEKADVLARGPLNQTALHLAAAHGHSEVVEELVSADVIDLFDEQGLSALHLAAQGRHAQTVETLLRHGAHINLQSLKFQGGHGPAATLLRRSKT
Protocol: as §1

[22] = target: SBK1 (Homo sapiens, UniProt Q52WX2); assay: Kinase inhibitory activity, full kinase panel; format: biochemical; settings: single concentration of 1 μM, read-out: %Inhibitory ability
Protocol: as §1

[23] = target: SRC (Homo sapiens, UniProt P12931); assay: Kinase inhibitory activity, full kinase panel; format: biochemical; settings: single concentration of 1 μM, read-out: %Inhibitory ability
Sequence of SRC (P12931 whole entry, species assumed): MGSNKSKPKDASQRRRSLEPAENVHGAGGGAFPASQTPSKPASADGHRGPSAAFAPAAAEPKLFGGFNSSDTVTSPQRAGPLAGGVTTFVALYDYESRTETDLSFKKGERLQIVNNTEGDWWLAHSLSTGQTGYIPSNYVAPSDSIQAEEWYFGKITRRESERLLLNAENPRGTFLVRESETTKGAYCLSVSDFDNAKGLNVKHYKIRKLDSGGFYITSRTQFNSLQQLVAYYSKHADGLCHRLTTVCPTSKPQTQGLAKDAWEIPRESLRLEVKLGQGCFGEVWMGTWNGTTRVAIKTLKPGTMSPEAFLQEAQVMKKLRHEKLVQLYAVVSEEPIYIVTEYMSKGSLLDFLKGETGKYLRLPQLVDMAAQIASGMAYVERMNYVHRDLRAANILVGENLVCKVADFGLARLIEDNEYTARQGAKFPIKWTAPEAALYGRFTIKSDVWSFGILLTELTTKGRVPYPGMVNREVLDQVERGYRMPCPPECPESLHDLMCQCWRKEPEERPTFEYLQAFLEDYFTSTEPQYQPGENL
Protocol: as §1

[24] = target: TGFBR2 (Homo sapiens, UniProt P37173); assay: Kinase inhibitory activity, full kinase panel; format: biochemical; settings: single concentration of 1 μM, read-out: %Inhibitory ability
Protocol: as §1

[25] = target: TRKA (Homo sapiens, UniProt P04629); assay: Kinase inhibitory activity, full kinase panel; format: biochemical; settings: single concentration of 1 μM, read-out: %Inhibitory ability
Protocol: as §1

[26] = target: TSSK3 (Homo sapiens, UniProt Q96PN8); assay: Kinase inhibitory activity, full kinase panel; format: biochemical; settings: single concentration of 1 μM, read-out: %Inhibitory ability
Protocol: as §1

[27] = target: ULK2 (Homo sapiens, UniProt Q8IYT8); assay: Kinase inhibitory activity, full kinase panel; format: biochemical; settings: single concentration of 1 μM, read-out: %Inhibitory ability
Protocol: as §1

Structure (SMILES): NC(=O)Nc1cc(C#Cc2cccc(F)c2)sc1C(=O)N[C@H]1CCCNC1 [Example 22, (S)-5-((3-fluorophenyl)ethynyl)-N-(piperidin-3-yl)-3-ureidothiophene-2-carboxamide]
- T/C, reduction of luminescence ([1]; 15 mg/kg orally once per day): 84.2%
- T/C, reduction of luminescence ([1]; 30 mg/kg orally once per day): 88.7%
- tumor inhibition at low dosages (luminescence) ([1]; 2, 4, 7, 10 mg/kg, po, qd): dose-dependent tumor inhibition in vivo from a dosage of 2 mg/kg

Structure (SMILES): Cc1ccc(C#Cc2cc(NC(N)=O)c(C(=O)N[C@H]3CCCNC3)s2)cc1 [Example 24, (S)—N-(piperidin-3-yl)-5-(p-tolylethynyl)-3-ureidothiophene-2-carboxamide]
- inhibition at 1 µM [2]: 67%
- inhibition at 1 µM [3]: 98.4%
- inhibition at 1 µM [4]: 94.4%
- inhibition at 1 µM [5]: 68%
- inhibition at 1 µM [6]: 96%
- inhibition at 1 µM [7]: 80%
- inhibition at 1 µM [8]: 94.9%
- inhibition at 1 µM [9]: 90.7%
- inhibition at 1 µM [10]: 99.8%
- inhibition at 1 µM [11]: 99.8%
- inhibition at 1 µM [12]: 97.7%
- inhibition at 1 µM [13]: 92.7%
- inhibition at 1 µM [14]: 95.9%
- inhibition at 1 µM [15]: 96.6%
- inhibition at 1 µM [16]: 92.5%
- inhibition at 1 µM [17]: 90.3%
- inhibition at 1 µM [18]: 81%
- inhibition at 1 µM [19]: 96.6%
- inhibition at 1 µM [20]: 77%
- inhibition at 1 µM [21]: 97.6%
- inhibition at 1 µM [22]: 66%
- inhibition at 1 µM [23]: 98.1%
- inhibition at 1 µM [24]: 72%
- inhibition at 1 µM [25]: 100%
- inhibition at 1 µM [26]: 72%
- inhibition at 1 µM [27]: 99.7%
